# From patent US5620676A, “Biologically active ATP analogs” (priority 1995, dated 1997)
# Entries after “also recorded” stand apart in the source; their conditions may differ. Read-outs that look alike come from different tables or passages of the source.
# Legend:
# [1] = target: T1, P2Y receptor (taenia coli) (Cavia porcellus, UniProt P59902); details: cited from earlier work
# T1 construct: Relaxant responses mediated via P2Y receptors were examined in guinea pig taenia coli; from tissue; host or cells: guinea pig taenia coli (carbachol-contracted)
# [2] = target: T2, P2Y receptor (turkey erythrocyte membranes) (Meleagris gallopavo, UniProt P49652); experiment: Stimulation of phospholipase C (inositol phosphate formation) in turkey erythrocyte membranes; assay type: biochemical; details: for EC50 / activity/potency in words, turkey erythrocyte: turkey erythrocyte membranes; for fold less potent than ATP, turkey erythrocyte: relative to ATP
# T2 construct: from tissue; host or cells: washed turkey erythrocytes, ghosts prepared by hypotonic lysis
# In short: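 Erythrocytes were labelled 18-24 h at 37 °C with [3H]myoinositol, and ghosts were made by hypotonic lysis. Ghosts (≈175 μg protein) were incubated 5 min at 30 °C in Hepes buffer pH 7.0 with 1 μM GTPγS and nucleotide analogs. Total [3H]inositol phosphates were purified by anion exchange; K0.5 averaged from 3-8 dose-response curves.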
# [3] = target: T3, adenylyl cyclase linked P2Y receptor (C6 rat glioma cells) (Rattus norvegicus, UniProt Q9EPX4); experiment: Inhibition of adenylyl cyclase in C6 rat glioma cells; assay type: cell-based; details: versus phospholipase C linked receptor
# T3 construct: endogenous in cells; host or cells: C6 rat glioma cells
# Method: This example illustrates the inhibition of adenylyl cyclase activity in C6 rat glioma cells, as a function of the presence of certain ATP analogs in the medium in which the C6 cells were cultured.
# Cells were labelled by incubation for 2 hours in the presence of 1 to 2 mCi of tritiated adenine/ml in the medium. Cells were washed twice with HEPES (20 mM, pH 7.5)-buffered Eagle's medium and then preincubated for 10 minutes at 37° C. with fresh medium containing 200 μM 3-isobutyl-1-methylxanthine. Agonist incubations were initiated by the simultaneous addition of 10 μM isoproterenol and various concentrations of nucleotides. The reactions were stopped after 10 minutes of aspiration of the nucleotide-containing medium and addition of 1 ml of ice-cold 5% trichloroacetic acid.
# [4] = tested on: P2Y receptor (aorta endothelium); experiment: Relaxation of noradrenalin-contracted rabbit aorta; details: for relaxation pD2, aorta: rabbit aorta, log molar units; for activity/potency/selectivity in words, aorta: rabbit aorta endothelial P2Y receptor
# Method: (§1) In FIG. 14, the x-axis is also marked in units of the negative log of the molar concentration of applied putative P2Y receptor agonists and the y-axis is marked in units of the percentage relaxation of the 1 μM noradrenalin-induced contraction of rabbit aorta endothelium. In FIGS. 15-16, the x-axis is marked in units of the negative log of the molar concentration of applied putative p^2X receptor agonists and the y-axis is marked in units of the percentage contraction relative to a standard dose of KCl (i.e., 60 mM), as assessed in guinea pig isolated urinary bladder detrussor muscle (FIG. 15) and guinea pig isolated vas deferens (FIG. 16).
# [5] = target: P2Y receptor (mesenteric artery); experiment: Relaxation of rabbit mesenteric artery; details: for relaxation pD2, mes. artery: log molar units
# [6] = target: T4, P2X receptor (saphenous artery) (Oryctolagus cuniculus, UniProt G1U3D6); experiment: Contraction of rabbit saphenous artery; details: rabbit saphenous artery
# T4 construct: and rabbit saphenous artery; from tissue; host or cells: rabbit saphenous artery
# T4 sequence (G1U3D6 1-399): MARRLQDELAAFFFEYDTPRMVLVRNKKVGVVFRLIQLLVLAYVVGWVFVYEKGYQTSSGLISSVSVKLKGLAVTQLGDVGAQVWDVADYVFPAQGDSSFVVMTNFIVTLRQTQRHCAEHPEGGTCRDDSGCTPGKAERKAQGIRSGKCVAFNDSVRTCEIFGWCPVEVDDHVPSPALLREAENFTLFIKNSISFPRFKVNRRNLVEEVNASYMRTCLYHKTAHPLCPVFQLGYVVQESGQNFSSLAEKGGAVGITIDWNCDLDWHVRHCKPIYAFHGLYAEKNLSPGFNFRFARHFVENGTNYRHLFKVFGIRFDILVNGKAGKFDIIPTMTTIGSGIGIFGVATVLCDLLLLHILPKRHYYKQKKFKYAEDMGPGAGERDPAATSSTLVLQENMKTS
# In short: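 Contraction of isolated rabbit saphenous artery, standard organ-bath methods; responses at 10 μM expressed as percentage of contraction produced by 1 μM α,MeATP. Highest analogue concentrations tested were 3-30 […].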
# [7] = target: T5, P2X receptor (urinary bladder) (Cavia porcellus, UniProt A0A286XVA9); experiment: Contraction of guinea pig isolated urinary bladder detrussor muscle; details: guinea pig urinary bladder
# T5 construct: guinea pig isolated urinary bladder detrussor muscle; from tissue; host or cells: guinea pig isolated urinary bladder detrusor muscle
# P2X and P2Y receptors = experiment: Overall activity in the seven P2X and P2Y preparations
# [8] = target: T6, P2X receptor (vas deferens) (Cavia porcellus, UniProt A0A286XVA9); experiment: Contraction of guinea pig isolated vas deferens
# T6 sequence (A0A286XVA9 1-399): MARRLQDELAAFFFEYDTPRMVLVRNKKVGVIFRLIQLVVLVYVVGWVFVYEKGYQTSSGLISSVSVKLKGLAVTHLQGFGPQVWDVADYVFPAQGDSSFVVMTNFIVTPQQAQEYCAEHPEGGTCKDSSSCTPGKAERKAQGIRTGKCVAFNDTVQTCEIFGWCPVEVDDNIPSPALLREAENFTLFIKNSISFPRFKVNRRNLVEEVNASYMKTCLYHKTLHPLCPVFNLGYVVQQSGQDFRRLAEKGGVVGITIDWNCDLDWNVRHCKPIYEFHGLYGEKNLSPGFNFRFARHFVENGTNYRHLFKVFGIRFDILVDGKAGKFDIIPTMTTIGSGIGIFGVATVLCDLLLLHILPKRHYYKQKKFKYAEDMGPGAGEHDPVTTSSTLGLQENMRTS
# Method: as §1
# P2Y receptors = experiment: Overall activity in P2Y receptor systems
# Method: Phospholipase C activity: Stimulation of inositol phosphate formation by compounds of the present invention was measured in turkey erythrocyte membranes as described by Harden et al., supra and Boyer et al., supra. The K0.5 values were averaged from 3-8 independently determined dose-response curves for each compound. Briefly, one ml of washed turkey erythrocytes was incubated in inositol-free medium (DMEM; Gibco) with 0.5-1 mCi of 2-[^3 H]myoinositol (20 Ci/mmol; American Radiolabeled Chemicals Inc., St. Louis, Mo.)for 18-24 h in a humidified atmosphere of 95% air 5% CO2 at 37° C. Erythrocyte ghosts were prepared by rapid lysis in hypotonic buffer (5 mM sodium phosphate, pH 7.4, 5 mM MgCl2, 1 mM EGTA) as described by Boyer et al., supra. Phospholipase C activity was measured in 25 μl of [^3 H]inositol-labeled ghosts (≈175 μg of protein, 200-500,000 cpm/assay) in a medium containing 424 μM CaC12, 0.91 mM MgSO4, 2 mM EGTA, 115 mM KCl, 5 mM KH2 PO4, and 10 mM Hepes, pH 7.0. Assay (100 μl or 200 μl final volume) contained 1 μM GTPγS and the indicated concentrations of nucleotide analogs. Ghosts were incubated at 30° C. for 5 min, and total [^3 H]inositol phosphates were quantitated after purification by anion exchange chromatography according to Harden et al. (supra) and Boyer et al. (supra).
# Muscular relaxation/contraction: Relaxant responses mediated via P2Y receptors were examined in guinea pig taenia coli, rabbit aorta, and rabbit mesenteric artery, as described by Hoyle et al. (Br. J. Pharmacol., 107, 367-374 (1992a)), Burnstock et al., (Br. J. Pharmacol., 90, 383-391 (1987a)), and Rubino et al., (Eur. J. Pharmacol., 212, 237-240 (1992)). Contractile responses mediated via P2X receptors were examined in the guinea pig urinary bladder and vas deferens, and rabbit saphenous artery, also using standard methods (see Hoyle et al., supra., 1992; Hoyle et al., Br. J. Pharmacol., 99, 617-621 (1990); and Burnstock et al., Br. J. Pharmacol., 90, 111-120 (1987b)).
# P2X receptors = experiment: Overall activity in P2X receptor systems
# [9] = target: T1, P2Y receptor (taenia coli); experiment: Relaxation of carbachol-contracted guinea pig taenia coli; details: for activity/potency in words, taenia coli: guinea pig taenia coli
# In short: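 Guinea pig taenia coli precontracted with 50 nM carbachol; relaxation to applied P2Y agonists expressed as percentage relaxation against negative log molar agonist concentration.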
# [10] = mean ± S.E.M. for at least 2 determinations, read-out: phosphatidyl inositol metabolism (K0.5, nM) erythrocyte
# [11] = listed as 3'-benzylamino-3'-deoxy-ATP
# [12] = listed as 3'-benzylamino-3'-deoxyATP
# [13] = listed as 3'-Benzylamino-3'-deoxy-ATP
# [14] = listed as adenosine-N1-oxide triphosphate
# T1 sequence (P59902 whole entry): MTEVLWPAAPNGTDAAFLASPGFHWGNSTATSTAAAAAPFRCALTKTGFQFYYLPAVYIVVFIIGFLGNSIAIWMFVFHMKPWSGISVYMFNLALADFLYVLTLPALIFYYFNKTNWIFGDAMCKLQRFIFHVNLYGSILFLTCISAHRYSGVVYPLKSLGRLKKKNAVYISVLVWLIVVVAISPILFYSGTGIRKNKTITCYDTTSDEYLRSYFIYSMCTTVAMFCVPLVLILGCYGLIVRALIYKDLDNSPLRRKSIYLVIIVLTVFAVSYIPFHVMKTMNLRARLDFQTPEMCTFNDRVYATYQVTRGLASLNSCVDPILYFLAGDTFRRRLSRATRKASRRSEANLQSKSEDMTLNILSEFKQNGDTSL
# T2 sequence (P49652 whole entry): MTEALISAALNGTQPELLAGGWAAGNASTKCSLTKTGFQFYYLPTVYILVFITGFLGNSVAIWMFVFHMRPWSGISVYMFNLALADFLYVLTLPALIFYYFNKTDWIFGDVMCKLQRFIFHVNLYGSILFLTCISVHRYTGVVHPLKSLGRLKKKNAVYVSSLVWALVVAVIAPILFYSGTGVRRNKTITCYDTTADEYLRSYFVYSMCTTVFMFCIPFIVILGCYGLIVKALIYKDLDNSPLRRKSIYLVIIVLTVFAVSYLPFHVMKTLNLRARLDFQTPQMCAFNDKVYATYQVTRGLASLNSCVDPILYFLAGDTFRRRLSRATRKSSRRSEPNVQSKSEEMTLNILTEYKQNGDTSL
# T3 sequence (Q9EPX4 whole entry): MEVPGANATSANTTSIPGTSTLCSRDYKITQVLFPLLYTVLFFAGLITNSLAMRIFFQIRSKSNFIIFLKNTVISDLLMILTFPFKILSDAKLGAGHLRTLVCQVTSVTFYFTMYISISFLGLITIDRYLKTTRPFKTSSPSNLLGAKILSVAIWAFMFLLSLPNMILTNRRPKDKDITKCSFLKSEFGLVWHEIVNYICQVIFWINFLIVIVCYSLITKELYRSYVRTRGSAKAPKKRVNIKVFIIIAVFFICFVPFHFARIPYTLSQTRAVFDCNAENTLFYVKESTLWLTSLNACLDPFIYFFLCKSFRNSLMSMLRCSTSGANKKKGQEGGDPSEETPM
smiles,measurement,setting,value
"Nc1nc(Cl)nc2c1ncn2[C@@H]1O[C@H](COP(=O)(O)OP(=O)(O)OP(=O)(O)O)[C@@H](O)[C@H]1O [2-Cl-ATP, 2-chloro-ATP, reference compound]","relaxation pD2, taenia coli","[1]; guinea pig taenia coli, log molar units, footnote e: literature data",7.2
same,EC50,[2]; [10],72 ± 19 nM
same,EC50,[2]; read-out: K0.5,72 nM
same,"selectivity for the adenylyl cyclase linked receptor, in words",[3],not observed
same,"relaxation pD2, aorta",[4],5.8
same,"relaxation pD2, mes. artery",[5],6.2
"Nc1ncnc2c1ncn2[C@@H]1O[C@H](COP(=O)(O)OP(=O)(O)OP(=O)(O)O)[C@@H](NCc2ccccc2)[C@H]1O [3'-Benzylamino-3'-deoxyATP, 3'-N-Benzylamino-3'-deoxyadenosine 5'-triphosphate]","activity/potency in words, saphenous artery",[6],inactive
same,"activity/potency in words, saphenous artery",[6]; [11],at best weak agonists in the saphenous artery
same,"activity/potency in words, saphenous artery",[6]; [12],not rabbit saphenous artery P2X receptors
same,EC50,[2]; [10],> 100000 nM
same,"activity/potency in words, bladder",[7],highly potent at urinary bladder P2X receptors
same,"activity/potency in words, bladder",[7]; [13],substantially more potent than ATP
same,"activity/potency in words, bladder",[7]; [11],potent agonists in the vas deferens and urinary bladder
same,"activity/potency in words, bladder",[7]; [12],high potency
same,"overall activity in words, all preparations",P2X and P2Y receptors,active only in the vas deferens and urinary bladder
same,"activity/potency in words, vas deferens",[8],the most potent agonist at vas deferens P2X receptors
same,"activity/potency in words, vas deferens",[8]; [13],substantially more potent than ATP
same,"activity/potency in words, vas deferens",[8]; [11],potent agonists in the vas deferens and urinary bladder
same,"activity/potency in words, vas deferens",[8]; [12],high potency
same,"overall activity in words, P2Y systems",P2Y receptors,either inactive or only a weak agonist in P2Y -systems
same,"overall activity in words, P2Y systems",P2Y receptors; listed as 3'-benzylamino-3'deoxyATP,inactive in the P2Y receptor systems
same,"overall activity in words, P2X systems",P2X receptors,specificity for P2X receptors
"Nc1ncnc2c1ncn2[C@@H]1O[C@H](COP(O)(=S)OP(=O)(O)OP(=O)(O)O)[C@@H](O)[C@H]1O (stereo partly drawn) [ATP-α-S (S-isomer), reference compound]","fold more potent than ATP, taenia coli","[1]; relative to ATP, see Burnstock et al. 1984",approximately 10 -fold
same,EC50,"[2]; phosphatidyl inositol metabolism (K0.5, nM) erythrocyte, mean ± S.E.M. for at least 2 determinations",8930 ± 4440 nM
same,"fold less potent than ATP, turkey erythrocyte",[2],2 -fold
same,"relaxation pD2, mes. artery",[5],6.6
"Nc1c2ncn([C@@H]3O[C@H](COP(=O)(O)OP(=O)(O)OP(=O)(O)O)[C@@H](O)[C@H]3O)c2nc[n+]1[O-] [Adenosine N1-oxide 5'-triphosphate, adenosine N1-oxide 5'-triphosphate, reference compound]",EC50,[9],12.6 µM
same,"activity/potency in words, turkey erythrocyte",[2],somewhat active in turkey erythrocytes
same,"activity/potency in words, turkey erythrocyte",[2]; [14],less potent than ATP at the turkey erythrocyte P2Y receptor
same,EC50,[2]; [10],16900 nM
same,"overall activity in words, P2Y systems",P2Y receptors,specific for P2Y receptors
same,"activity/potency/selectivity in words, aorta",[4],selective for the endothelial receptors of the rabbit aorta versus the mesenteric artery and taenia coli
same,"activity/potency/selectivity in words, aorta",[4]; [14],much more potent than ATP
same,"relaxation pD2, aorta",[4],6.7
same,"overall activity in words, P2X systems",P2X receptors,inactive in the P2X receptor systems
same,"activity/potency in words, mesenteric artery",[5],no activity at the mesenteric artery P2Y receptor
"CNc1ncnc2c1ncn2[C@@H]1O[C@H](COP(=O)(O)OP(=O)(O)OP(=O)(O)O)[C@@H](O)[C@H]1O [N^6 -Me-ATP, N^6 -Methyl-adenosine 5'-triphosphate]",EC50,[9],1.58 µM
same,"activity/potency in words, taenia coli",[9]; listed as N^6 -methyl ATP,equipotent with ATP in the taenia coli
same,"activity/potency in words, taenia coli",[9]; listed as N^6 -methylATP,selectivity; also recorded: at an equal level as if activated by ATP itself
same,"fold less potent than ATP, turkey erythrocyte",[2],7 -fold
same,EC50,[2]; [10],19000 nM
same,"selectivity for the adenylyl cyclase linked receptor, in words",[3],slightly selective of the phospholipase C-linked receptor
same,"overall activity in words, P2Y systems",P2Y receptors,inactive in vascular smooth muscle
same,"activity/potency/selectivity in words, aorta",[4],significantly less activated
same,"overall activity in words, P2X systems",P2X receptors; listed as N^6 -methyl ATP,inactive in P2X preparations
same,"overall activity in words, P2X systems",P2X receptors; listed as N^6 -methyl-ATP,inactive in the P2X receptor systems
same,"activity/potency in words, mesenteric artery",[5],not activated at concentrations of the N^6 -methyl derivative as high as 10^-5 M
